# Reference: patent publication US20050192341A1, “Non-psychotropic cannabinoids for prevention of cognitive impairment” (priority 2002, published 2005)
# Columns and labels:
# [1] = system: Sprague-Dawley male rats; test: Four vessel occlusion (4 VO) in rats, neurological score; assay type: in vivo, rat
# Text: This model was used to test the ability of dexanabinol or related compounds to act as neuroprotectant when administered prior to surgery. The blood supply to the rat brain arrives via the two vertebral and two common carotid arteries. Transient occlusion of all four vessels results in global ischemia, as would occur during cardiac arrest in humans. Global ischemia results in neurological deficits, including short-term memory deficits, and a selective loss of neurons, including pyramidal cells, in the CA1 field of the hippocampus, similarly to the situation observed in MCI. The ability of compounds to reduce the neurological deficits and increase neuronal survival in this model is considered indicative of their potential in preventing brain damage related to cardiac arrest, and is also predictive for ischemic damages and MCI caused by surgery, for instance cardiac surgery performed or not under cardiopulmonary bypass. […] Transient ischemia causes irreversible injury to a few, specific populations of highly vulnerable neurons.
# Sprague-Dawley male rats (180-400 g body weight, Anilab, Israel) were anesthetized using 4% halothane for induction and 1% halothane for maintenance, in a mixture of 70% N2O and 30% O2. Animals were submitted to four-vessel occlusion according to the procedure of Pulsinelli et al. (Pulsinelli W. A. et al., Stroke 10: 267, 1979) in a two-stage operation. On the first day the vertebral arteries were occluded. A midline skin incision was performed above the spinal cord behind the skull occipital bone. Muscles were separated and cut until the C1 vertebra was isolated. The alar foramina were located and the vertebral arteries were coagulated via the alar foramina. Muscles and skin were closed in two layers. On the same day, the common carotid arteries (CCA) were isolated through a central neck midline incision. A loose suture material was positioned around them and the skin was closed.
# On the second day, the animals were lightly anesthetized using ether. The skin was opened and CCA were closed for 20 minutes with arterial clips. Animals were deprived of food, with free access to water, overnight between the two stages of the study. Loss of righting reflex was the principal criterion for assuring severe forebrain ischemia in the 4 VO model in the rat. Therefore, animals not showing this sign were not included in the study. […]
# Animals were monitored for their general clinical appearance at predetermined time points: before vertebral occlusion; before and 5 hours after CCA occlusion; then 1, 2, and 3 days after CCA occlusion. Body weight was recorded at baseline and at each follow-up session.
# The total neurological score was calculated by adding the results of all tests for each animal and the maximal score obtainable for normal animals is 16 points. […]
# [2] = system: Sprague Dawley rats; test: Neuronal vacuolization and necrosis histopathology after single high dose injection in rats; assay type: in vivo, rat; details: for Average number of vacuoles / Average number of necrotic foci: males and females, all sections; for Average number of vacuoles / Number of animals with necrotic foci: dexanabinol 50 mg/kg i.v.; for Average number of vacuoles / Average number of necrotic foci / Number of animals with necrotic foci / Clinical signs post-dose: MK-801 5 mg/kg s.c.; for Average number of necrotic foci: dexanabinol 50 mg/kg i.v. in CREMOPHOR EL:ethanol; for Number of animals with necrotic foci: cingulated gyrus, males and females combined; for Clinical signs post-dose: study day 1, dexanabinol 50 mg/kg i.v. (undistinguishable from vehicle, transient)
# Text: The purpose of this study was to characterize the potential of dexanabinol to protect against neuronal vacuolization and cell death in the retrosplenial and cingulated neocortex regions of the brain in Sprague Dawley rats following intravenous administration of a single high dose of […]. It has previously been reported that neuronal vacuolization and cell death are among the commonly detected adverse side effects of NMDA antagonists in rodents (Olney J. W. et al., Science 244: 1360-2, 1989).
# Sprague Dawley rats (140-250 g body weight, Charles River Laboratory, Mich., USA) were maintained under controlled environmental conditions, with 12:12 hour light dark cycle, and had free access to food and water. The animals were acclimated for at least seven days prior to study day 1. Animals were randomly assigned to the following treatment groups: saline (negative control), CREMOPHOR EL®:ethanol (70:30 w/w respectively supplemented with 0.5% w/v dl-α-tocopherol and 0.01% w/v edetic acid; vehicle) and 50 mg/kg dexanabinol. For all groups the volume dosage was 10 ml/kg and the treatments were administered via bolus intravenous injection into the lateral tail vein of animals. CREMOPHOR EL®:ethanol and dexanabinol 50 mg/ml were diluted 1:10 into saline prior to injection. M-801 at a dose of 5 mg/kg administered subcutaneously at a volume dosage of 5 ml/kg was used as positive control, its vehicle being saline.
# Each treatment group consisted of six males and six females, which were at first analyzed separately to assess gender influence. Clinical observations, including observations for mortality or moribundity, were recorded pretest, once daily, and when a change was noted during the twice-daily observations. Body weights were recorded pretest and predose on study day 1. Six animals per sex per group per time point were submitted for necropsy at approximately 4 and 12 hours post-dose, and 1, 3, and 7 days post-dose. At the predetermined time points, the animals were humanely euthanized via intraperitoneal injection of 100 mg/kg sodium pentobarbital to achieve deep anesthesia.
# Whole body perfusion were performed using heparinized saline for approximately one minute followed by 10% neutral buffered fornalin for approximately eight to ten minutes on all animals. The calvarium was removed, leaving the brain in the cranial cavity. The heads (with the brain in the cranial cavity) or brains (removed only after 24 hours left in situ in 10% neutral buffered formalin) were placed into 10% neutral buffered formalin until further process toward pathological analysis.
# The brains from all animals at all time points were processed and evaluated as follows. The brains from the 4 and 12 hours time point animals were removed and sectioned using a rat brain trimming matrix to yield two coronal sections including the posterior cingulated gyrus (retrosplenial area of the brain). All sections were embedded in glycol methacrylate, sectioned at approximately 2 microns, and stained with hematoxylin and eosin. Brains from the 1, 3 and 7 days post-dose animals were removed and sectioned to yield three coronal sections spanning the brain from the posterior cingulate gyrus and extending rostral to the level of the basal nuclei. These sections were embedded in paraffin and sectioned twice at approximately 5-8 microns, with one section stained with hematoxylin and eosin and the other with Fluoro-Jade B, which selectively stains dying neuronal cells. The slides were microscopically evaluated in a blinded fashion. No statistical analyses were performed.
# [3] = system: individuals suffering from severe traumatic brain injury; details: severe traumatic brain injury patients; not significant statistically; cited from earlier work
# [4] = system: Sprague-Dawley male rats; test: Cognitive impairment assessment following 4 VO, Morris water maze; assay type: in vivo, rat
# Procedure: One week after CCA occlusion, the cognitive impairment was measured using a Morris water maze apparatus. The ability of the animals to perform in this test is predictive of their learning and memory capacity. A circular metal pool 150 cm in diameter and 74 cm in height was filled with water at 25° C. to a height of 54 cm. A platform 10 cm in diameter was placed 2 cm below the water surface. The pool was divided (virtually) into 4 equal surface areas identified by arbitrary north, south, east and west coordinates. The platform was located in the middle of the southwest quadrant 25 cm from the pool rim. The swim path was monitored by video camera connected to a computer (View Point, France). […] Animals that found the hidden platform were allowed to stay on it for 30 seconds.
# Animals were tested in nine consecutive trials one week following the 4 VO and the learning capacity was measured as the amount of time spent by the animal swimming before finding the hidden platform. Each trial was performed for 1 minute and there were 5 minute intervals between the trials. One day later, eight days post-occlusion, the animals were tested again in order to assess their memory.
# Three groups of at least 8 animals each were tested in this study: 1) sham operated animals; 2) operated animals treated 15 minutes before CCA occlusion with HPCD vehicle; 3) operated animals treated 15 minutes before CCA occlusion with 8 mg/kg dexanabinol, prepared and injected intravenously as previously described in example 2.
# The average latency time in seconds elapsed until platform localization was calculated for each treatment group as an average of three consecutive trials. […] During the first six trials dexanabinol treated animals learned similarly to vehicle treated animals.
Compound,Time to full recovery of neurological score to sham animals levels ([1]; 8 mg/kg i.v. 15 minutes before CCA occlusion),"Decrease in neurological score ([1]; 5 hours after occlusion, 8 mg/kg i.v. 15 minutes before CCA occlusion, maximal score 16 points)","Neurological score compared with sham operated group ([1]; 48 hours post-occlusion, 8 mg/kg i.v.)","Neurological outcome compared with vehicle treated or operated untreated animals ([1]; from 24 hours post-occlusion on, 8 mg/kg i.v.)",Average number of vacuoles ([2]; 4 hrs post-dosing),Average number of vacuoles ([2]; 12 hrs post-dosing),Average number of necrotic foci ([2]; Day 1 post-dosing),Average number of necrotic foci ([2]; Day 3 post-dosing),Average number of necrotic foci ([2]; Day 7 post-dosing),Number of animals with necrotic foci ([2]; Day 1 post-dosing),Number of animals with necrotic foci ([2]; Day 3 post-dosing),Number of animals with necrotic foci ([2]; Day 7 post-dosing),"Highest tolerated dose in rats ([2]; single dose, to the first approximation)",Clinical signs post-dose [2],Neurological outcome as assessed by the Galveston Orientation and Amnesia Test [3],"Average time to localize the hidden platform ([4]; average over the ten trials measuring learning and memory, 8 mg/kg i.v., sham 34.8 seconds)","Time less than sham operated animals to localize the hidden platform ([4]; average over the ten trials, 8 mg/kg i.v., difference not statistically significant)","Reduction in average time for platform localization over vehicle treated animals (memory) ([4]; day 8 post-occlusion, 8 mg/kg i.v. 15 minutes before CCA occlusion)","Reduction in average time for platform localization over vehicle control group (learning) ([4]; last three of nine trials, one week after 4 VO, 8 mg/kg i.v. 15 minutes before CCA occlusion)"
"CCCCCCC(C)(C)c1cc(O)c2c(c1)OC(C)(C)[C@H]1CC=C(CO)C[C@H]21 [Dexanabinol, 1,1-dimethyl-(3S,4S)-7-hydroxy-Δ^6-tetrahydrocannabinol]",≤ 72 hours,about 4 points,not statistically different from the sham operated group,significantly better neurological outcome,None,None,0.5,0.6,>3,0/12,0/12,0/12,~50 mg/kg,prostration and decreased activity,trend existed for the dexanabinol treated patients to achieve better neurological outcome,30.8 s,4 s,~22%,more than 42%
"C[C@]12N[C@H](Cc3ccccc31)c1ccccc12 [MK-801, reference compound]",–,–,–,–,–,–,–,–,–,–,–,–,–,"ataxia, tremors and prostration",–,–,–,–,–
